According to patent US9833497B2, “Human originated EGF domain proteins and use of the same” (CHENGDU SOURCEBIO LIMITED-LIABILITY COMPANY, priority 2013, dated 2017):

How the values were obtained:
Format in all cases: cell-based
Klebsiella pneumonia = experiment: MIC against Gram-negative bacteria: Klebsiella pneumonia; conditions: 10 h cultivation at 37° C., 5×10^5 CFU/mL, two-fold serial dilution
In short: (§1)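 The recombinant human-originated EGF domain proteins were serially diluted two-fold against bacteria at 5×10^5 CFU/mL in LB medium. After shaken incubation at 37° C, the lowest concentration with no bacterial growth was recorded as the MIC.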

Moraxella catarrhalis = experiment: MIC against Gram-negative bacteria: Moraxella catarrhalis; conditions: 10 h cultivation at 37° C., 5×10^5 CFU/mL, two-fold serial dilution
In short: as §1

Aeromonas hydrophila = experiment: MIC against Gram-negative bacteria: Aeromonas hydrophila; conditions: 10 h cultivation at 37° C., 5×10^5 CFU/mL, two-fold serial dilution
In short: as §1

Enterobacter cloacae = experiment: MIC against Gram-negative bacteria: Enterobacter cloacae; conditions: 10 h cultivation at 37° C., 5×10^5 CFU/mL, two-fold serial dilution
In short: as §1

Citrobacter diversus = experiment: MIC against Gram-negative bacteria: Citrobacter diversus; conditions: 10 h cultivation at 37° C., 5×10^5 CFU/mL, two-fold serial dilution
In short: as §1

Proteus vulgaris = experiment: MIC against Gram-negative bacteria: Proteus vulgaris; conditions: 10 h cultivation at 37° C., 5×10^5 CFU/mL, two-fold serial dilution
In short: as §1

Pseudomonas aeruginosa = experiment: MIC against Gram-negative bacteria: Pseudomonas aeruginosa; conditions: 10 h cultivation at 37° C., 5×10^5 CFU/mL, two-fold serial dilution
In short: as §1

Serratia marcescens = experiment: MIC against Gram-negative bacteria: Serratia marcescens; conditions: 10 h cultivation at 37° C., 5×10^5 CFU/mL, two-fold serial dilution
In short: as §1

Proteus mirabilis = experiment: MIC against Gram-negative bacteria: Proteus mirabilis; conditions: 10 h cultivation at 37° C., 5×10^5 CFU/mL, two-fold serial dilution
In short: as §1

E. coli BL21 = experiment: MIC against Gram-negative bacteria: E. coli BL21; conditions: 10 h cultivation at 37° C., 5×10^5 CFU/mL, two-fold serial dilution
In short: as §1

E. coli DH5α = experiment: Antibacterial activity: MIC and growth curve against E. coli DH5α in 96-well plate; conditions: minimal inhibitory concentration against E. coli DH5α; 96-well plate, 5×10^5 CFU/mL, 37° C., judged after 8 h
In short: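 Log-phase bacteria (OD600 ~0.5) resuspended in LB at 5×10^5 CFU/mL, exposed to recombinant protein at 50, 25, 12.5 μg/mL final in triplicate, 37 °C shaking at 175 rpm. OD600 read every 30 min; MIC is lowest concentration showing no growth.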

**Q.** For “PRT1084 (HLVKCAEKEKTFCVNGGECFMVKDLSNPSRYLCKCQPGFTGARCT; listed as Homo sapiens)”, which “MIC K. pneumonia” value (Klebsiella pneumonia) is on record?
**A.** 50 µg/mL

**Q.** What about the “MIC M. catarrhalis” value (Moraxella catarrhalis) of the same substance?
**A.** 25 µg/mL

**Q.** And the “MIC A. hydrophila” value (Aeromonas hydrophila)?
**A.** 12.5 µg/mL

**Q.** What about the “MIC E. cloacae” value (Enterobacter cloacae) of the same substance?
**A.** 50 µg/mL

**Q.** What about the “MIC C. diversus” value (Citrobacter diversus) of the same substance?
**A.** 12.5 µg/mL

**Q.** What about the “MIC P. vulgaris” value (Proteus vulgaris) of the same substance?
**A.** 25 µg/mL

**Q.** What about the “MIC P. aeruginosa” value (Pseudomonas aeruginosa) of the same substance?
**A.** 50 µg/mL

**Q.** And the “MIC S. marcescens” value (Serratia marcescens)?
**A.** 12.5 µg/mL

**Q.** What about the “MIC P. mirabilis” value (Proteus mirabilis) of the same substance?
**A.** 12.5 µg/mL

**Q.** And the “MIC E. coli BL21” value (E. coli BL21)?
**A.** 12.5 µg/mL

**Q.** What about the MIC (E. coli DH5α) of the same substance?
**A.** 50 µg/mL

**Q.** With “PRT1085 (HARKCNETAKSYCVNGGVCYYIEGINQLSCKCPNGFFGQRCL; listed as Homo sapiens)” as the substance, how does the “MIC K. pneumonia” value (Klebsiella pneumonia) read?
**A.** 50 µg/mL

**Q.** What about the “MIC M. catarrhalis” value (Moraxella catarrhalis) of the same substance?
**A.** 50 µg/mL

**Q.** What about the “MIC A. hydrophila” value (Aeromonas hydrophila) of the same substance?
**A.** 50 µg/mL

**Q.** And the “MIC E. cloacae” value (Enterobacter cloacae)?
**A.** 12.5 µg/mL

**Q.** What about the “MIC C. diversus” value (Citrobacter diversus) of the same substance?
**A.** 12.5 µg/mL

**Q.** And the “MIC P. vulgaris” value (Proteus vulgaris)?
**A.** 50 µg/mL

**Q.** And the “MIC P. aeruginosa” value (Pseudomonas aeruginosa)?
**A.** 12.5 µg/mL

**Q.** And the “MIC S. marcescens” value (Serratia marcescens)?
**A.** 25 µg/mL

**Q.** What about the “MIC P. mirabilis” value (Proteus mirabilis) of the same substance?
**A.** 12.5 µg/mL

**Q.** And the “MIC E. coli BL21” value (E. coli BL21)?
**A.** 12.5 µg/mL

**Q.** And the MIC (E. coli DH5α)?
**A.** 25 µg/mL

**Q.** For “PRT1086 (HFKPCRDKDLAYCLNDGECFVIETLTGSHKHCRCKEGYQGVRCD; listed as Homo sapiens)”, which “MIC K. pneumonia” value (Klebsiella pneumonia) is on record?
**A.** 25 µg/mL

**Q.** What about the “MIC M. catarrhalis” value (Moraxella catarrhalis) of the same substance?
**A.** 25 µg/mL

**Q.** And the “MIC A. hydrophila” value (Aeromonas hydrophila)?
**A.** 25 µg/mL

**Q.** What about the “MIC E. cloacae” value (Enterobacter cloacae) of the same substance?
**A.** 12.5 µg/mL

**Q.** What about the “MIC C. diversus” value (Citrobacter diversus) of the same substance?
**A.** 50 µg/mL

**Q.** And the “MIC P. vulgaris” value (Proteus vulgaris)?
**A.** 50 µg/mL

**Q.** What about the “MIC P. aeruginosa” value (Pseudomonas aeruginosa) of the same substance?
**A.** 50 µg/mL

**Q.** What about the “MIC S. marcescens” value (Serratia marcescens) of the same substance?
**A.** 12.5 µg/mL

**Q.** What about the “MIC P. mirabilis” value (Proteus mirabilis) of the same substance?
**A.** 12.5 µg/mL

**Q.** And the “MIC E. coli BL21” value (E. coli BL21)?
**A.** 25 µg/mL

**Q.** And the MIC (E. coli DH5α)?
**A.** 12.5 µg/mL

**Q.** “PRT1087 (HEEPCGPSHKSFCLNGGLCYVIPTIPSPFCRCVENYTGARCE; listed as Homo sapiens)” was tested. Which “MIC K. pneumonia” value (Klebsiella pneumonia) did it give?
**A.** 50 µg/mL

**Q.** What about the “MIC M. catarrhalis” value (Moraxella catarrhalis) of the same substance?
**A.** 50 µg/mL

**Q.** What about the “MIC A. hydrophila” value (Aeromonas hydrophila) of the same substance?
**A.** 12.5 µg/mL

**Q.** What about the “MIC E. cloacae” value (Enterobacter cloacae) of the same substance?
**A.** 50 µg/mL

**Q.** What about the “MIC C. diversus” value (Citrobacter diversus) of the same substance?
**A.** 25 µg/mL

**Q.** What about the “MIC P. vulgaris” value (Proteus vulgaris) of the same substance?
**A.** 25 µg/mL

**Q.** And the “MIC P. aeruginosa” value (Pseudomonas aeruginosa)?
**A.** 50 µg/mL

**Q.** What about the “MIC S. marcescens” value (Serratia marcescens) of the same substance?
**A.** 25 µg/mL

**Q.** And the “MIC P. mirabilis” value (Proteus mirabilis)?
**A.** 25 µg/mL

**Q.** And the “MIC E. coli BL21” value (E. coli BL21)?
**A.** 12.5 µg/mL

**Q.** And the MIC (E. coli DH5α)?
**A.** 50 µg/mL

**Q.** What does the source list for “PRT1088 (PVNPCCYYPCQHQGICVRFGLDRYQCDCTRTGYSGPNCT; listed as Homo sapiens)”?
**A.** MIC K. pneumonia (Klebsiella pneumonia): 12.5 µg/mL; MIC M. catarrhalis (Moraxella catarrhalis): 25 µg/mL; MIC A. hydrophila (Aeromonas hydrophila): 50 µg/mL; MIC E. cloacae (Enterobacter cloacae): 50 µg/mL; MIC C. diversus (Citrobacter diversus): 50 µg/mL; MIC P. vulgaris (Proteus vulgaris): 25 µg/mL; MIC P. aeruginosa (Pseudomonas aeruginosa): 50 µg/mL; MIC S. marcescens (Serratia marcescens): 50 µg/mL; MIC P. mirabilis (Proteus mirabilis): 12.5 µg/mL; MIC E. coli BL21 (E. coli BL21): 50 µg/mL; MIC (E. coli DH5α): 25 µg/mL

**Q.** Which results are given for “PRT1089 (ANPCCSHPCQNRGVCMSVGFDQYKCDCTRTGFYGENCS; listed as Homo sapiens)”?
**A.** MIC K. pneumonia (Klebsiella pneumonia): 25 µg/mL; MIC M. catarrhalis (Moraxella catarrhalis): 12.5 µg/mL; MIC A. hydrophila (Aeromonas hydrophila): 50 µg/mL; MIC E. cloacae (Enterobacter cloacae): 12.5 µg/mL; MIC C. diversus (Citrobacter diversus): 25 µg/mL; MIC P. vulgaris (Proteus vulgaris): 50 µg/mL; MIC P. aeruginosa (Pseudomonas aeruginosa): 50 µg/mL; MIC S. marcescens (Serratia marcescens): 25 µg/mL; MIC P. mirabilis (Proteus mirabilis): 25 µg/mL; MIC E. coli BL21 (E. coli BL21): 25 µg/mL; MIC (E. coli DH5α): 50 µg/mL

**Q.** Which results are given for “PRT1090 (NNTRCLSNSCQNNSTCKDFSKDNDCSCSDTANNLDKDCD; listed as Homo sapiens)”?
**A.** MIC K. pneumonia (Klebsiella pneumonia): 12.5 µg/mL; MIC M. catarrhalis (Moraxella catarrhalis): 50 µg/mL; MIC A. hydrophila (Aeromonas hydrophila): 12.5 µg/mL; MIC E. cloacae (Enterobacter cloacae): 50 µg/mL; MIC C. diversus (Citrobacter diversus): 25 µg/mL; MIC P. vulgaris (Proteus vulgaris): 12.5 µg/mL; MIC P. aeruginosa (Pseudomonas aeruginosa): 50 µg/mL; MIC S. marcescens (Serratia marcescens): 25 µg/mL; MIC P. mirabilis (Proteus mirabilis): 25 µg/mL; MIC E. coli BL21 (E. coli BL21): 12.5 µg/mL; MIC (E. coli DH5α): 25 µg/mL
